Data taken from patent publication US10238702B2, “Pharmaceutical composition, preparation method therefor and use thereof” (SICHUAN JIUZHANG BIOLOGICAL SCIENCE AND TECHNOLOGY CO., LTD, priority 2013, dated 2019).
Marks after values point to notes of the source that are not given here.

What was measured:
[1] = system: mouse peritoneal macrophages; experiment: Phagocytosis test of chicken red blood cell; assay type: in vivo, Kunming mice; conditions: intragastric once per day for four weeks, 300 mg/kg (Mannatide 20 mg/kg); for Phagotrophic percentage (%, X ± SD): chicken red blood cells phagocytized by 100 macrophages
Experimental: Kunming mice were randomly divided into seven groups according to gender and body weight, with 12 mice in each group. As the dose design, all groups received one intragastric administration per day at a dose of 0.4 ml/20 g for successive four weeks. Mice were weighed for two times per week, to adjust the drug dosage. 30 minutes after final administration, each mouse in each group was injected intraperitoneally with 5% chicken erythrocyte suspension at a dose of 1.0 ml/mouse. Six hours after injection, animals were sacrificed by cervical dislocation, and received 2 ml physiological saline via peritoneal injection, while the abdomen of mice was gently massaged. Then, one pin hole was cut in the center of peritoneum, and washing water in peritoneal cavity was extracted, dropped on microscope slide, and cultured for 30 min in incubator at 37° C. The solution was washed with normal saline, fixed using methanol, and dyed by Giemsa staining. The numbers of chicken red blood cell phagocytized by 100 macrophages were observed under oil immersion lens. The phagotrophic percentage and the phagotrophic index were calculated according to the following formula, and results were shown in Table 15. [formula] [formula]

mouse macrophages = experiment: Carbon granules clearance test; assay type: in vivo, Kunming mice; conditions: once per day for four weeks, 300 mg/kg (Mannatide 20 mg/kg); for α value (X ± SD): corrected phagotrophic index; for K value (X ± SD): Indian ink via vena caudalis, blood at 1 and 5 min
Experimental: Kunming mice were randomly divided into seven groups according to gender and body weight, with 10 mice in each group. As the dose design in Table 14, all groups were administrated once per day at a dose of 0.4 ml/20 g for successive four weeks. Mice were weighed for two times per week, to adjust the drug dosage. One hour after final administration, each mouse in each group was injected with Indian ink [(1:4)0.1 ml·10 g^−1] via vena caudalis. […] After animals were sacrificed by cervical dislocation, liver and spleen were collected and weighed, to calculate the phagotrophic index K=(log OD^1−log OD2)/(t2−t1) and correct the phagotrophic index α=[body weight/(liver weight+spleen weight)]×K^1/3.

oxygen radicals = experiment: Metabolism of in vivo oxygen radicals (serum SOD activity, MDA content); set-up: species or system C57BL/6 mice; conditions: blood serum, intragastric once per day for four weeks, 300 mg/kg (IFNa-2b 300 0000 IU)
Experimental: Experimental methods: C57BL/6 mice were randomly divided to eight groups as body weight, with 10 mice in each group. According to the dose design in Table 14, all groups received one intragastric administration per day at a dose of 0.4 ml/20 g for successive four weeks. Mice were weighed for two times per week, to adjust the drug dosage. On the last day of experiment, blood samples were drawn from femoral artery of animals and centrifuged to collect blood serum. Using TBA colorimetric method and xanthine oxidase method, application of sample was performed according to procedures of kit instructions, and absorbance values were measured at wavelengths of 532 nm and 550 nm using UV2300 Ultraviolet spectrophotometer. MDA content and SOD activity were calculated, respectively.

| Compound | Phagotrophic index (X ± SD) [1] | Phagotrophic percentage (%, X ± SD) [1] | α value (X ± SD) (mouse macrophages) | K value (X ± SD) (mouse macrophages) | MDA(nmol/L) (x ± s) (oxygen radicals; TBA colorimetric method) | SOD(U/L) (x ± s) (oxygen radicals; xanthine oxidase method) |
| --- | --- | --- | --- | --- | --- | --- |
| O=C(/C=C/c1ccc(O)c(O)c1)O[C@@H]1C[C@](O)(C(=O)O)C[C@@H](O)[C@H]1O [Chologenic acid, Chlorogenic acid] | 0.52 ± 0.07 | 36.58 ± 4.50 % | 3.94 ± 1.05 | 0.019 ± 0.011 | 27.14 ± 3.41 nmol/L | 218.73 ± 25.32 ^ U/L |
| Mannatide [reference compound] | 0.57 ± 0.05***^ΔΔ | 40.32 ± 2.25***^ΔΔ % | 4.43 ± 1.06 | 0.019 ± 0.013 | – | – |
